Measured values as given in paper PMC4405286, “Extracellular vesicle sorting of α-Synuclein is regulated by sumoylation” (Acta Neuropathologica, 2015).
Like-named read-outs stand apart in the source and are kept apart here.

Target: T1, SUMO-2 (Homo sapiens, UniProt P55854)
T1 construct: gene SUMO3; recombinant, untagged as far as told, pET11, E. coli (NMR, 15N-labelled); for titrations single Cys labelled with MFM probe
Test: fluorescence titration of MFM-labelled protein with SUVs, global fit
Type: binding

[1] = SUVs POPC:POPS:PI 85:10:5, too weak to be determined, bound set by POPS, acyl chains not given, MFM-labelled protein, 25 mM Na-HEPES, 100 mM KCl, pH 7.26, room temperature

T1 sequence (P55854 1-92): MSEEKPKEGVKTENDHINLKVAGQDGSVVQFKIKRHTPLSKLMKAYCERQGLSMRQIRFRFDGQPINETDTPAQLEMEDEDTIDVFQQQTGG

| Compound | Kd [1] | further results |
| --- | --- | --- |
| PI(3)P | – | Kd (lipid in SUVs POPC:POPS:PI 85:10:5, per-lipid Kd from global fit, includes binding stoichiometry, acyl chains not given, MFM-labelled protein, 25 mM Na-HEPES, 100 mM KCl, pH 7.26, room temperature): ~4 µM |
| PI(4,5)P2 | > 7 µM | – |
| PI(3,5)P2 | > 7 µM | – |
| CCCCCCCC/C=C\CCCCCCCC(=O)O[C@H](COC(=O)CCCCCCCCCCCCCCC)COP(=O)([O-])OCC[N+](C)(C)C [POPC, 1-palmitoyl,2-oleoyl-sn-glycero-3-phosphocholine] | – | Kd: 180 ± 42 µM |
| PI(5)P | > 7 µM | – |
